Four compounds from patent US20130197085A1, “AGENT AND METHOD FOR STABILIZING MEMBRANE PROTEIN” (priority 2007, published 2013) can be followed below.

The target of assay [1] is T1, wild-type BSEP (Homo sapiens, UniProt O95342, L339V).
T1 construct: expressed in transfected cells; host or cells: MDCKII cells infected with recombinant adenovirus
In words: Transcellular transport assay of [^3H] TC across MDCKII monolayer. It is filed as cell-based. Conditions: other carboxylic acids, 1 mM, 24 hours; FIG. 10. The protocol:
MDCKII cells were dispersed on a Transwell membrane insert (pore size: […]; Falcon) of a 24-well plate, resulting in a density of 1.5×10^5 cells/insert. Two days after the culture, the confluent cells were infected with recombinant adenoviruses having the cDNAs of wild-type, E297G and D482G BSEPs, and GFP, at 50 MOI. […] After completion of the treatment for 24 hours, a transcellular transport assay was carried out (see Mita et al., Am J Physiol Gastrointest Liver Physiol 290: G550-G556, 2006).
The apparent efflux clearance across the apical membrane (PSapical) was calculated by dividing a steady rate of the transcellular transport of [^3H] TC for 2 hours by the intracellular concentration of the [^3H] TC at the termination of the experiment (2 hours later).

The target in assay [2] is T1, wild-type BSEP. In words: Cell surface biotinylation method, expression on the surface of MDCKII cells. It is filed as cell-based. Conditions: 1 mM, 24 hours, FIG. 9 cell surface fraction. The protocol: MDCKII cells were dispersed on a 6-well plate, resulting in a density of 2.5×10^5 cells/well. After completion of the culture for 24 hours, the confluent cells were infected with recombinant adenoviruses having the cDNAs of wild-type, E297G and D482G BSEPs, and GFP, at 200 MOI. After completion of the infection, the cells were cultured for 24 hours. […] After completion of the treatment for 24 hours, the cells were biotinylated (see Hayashi et al., Hepatology, 41: 916-924, 2005).

T1 sequence (O95342 whole entry L339V): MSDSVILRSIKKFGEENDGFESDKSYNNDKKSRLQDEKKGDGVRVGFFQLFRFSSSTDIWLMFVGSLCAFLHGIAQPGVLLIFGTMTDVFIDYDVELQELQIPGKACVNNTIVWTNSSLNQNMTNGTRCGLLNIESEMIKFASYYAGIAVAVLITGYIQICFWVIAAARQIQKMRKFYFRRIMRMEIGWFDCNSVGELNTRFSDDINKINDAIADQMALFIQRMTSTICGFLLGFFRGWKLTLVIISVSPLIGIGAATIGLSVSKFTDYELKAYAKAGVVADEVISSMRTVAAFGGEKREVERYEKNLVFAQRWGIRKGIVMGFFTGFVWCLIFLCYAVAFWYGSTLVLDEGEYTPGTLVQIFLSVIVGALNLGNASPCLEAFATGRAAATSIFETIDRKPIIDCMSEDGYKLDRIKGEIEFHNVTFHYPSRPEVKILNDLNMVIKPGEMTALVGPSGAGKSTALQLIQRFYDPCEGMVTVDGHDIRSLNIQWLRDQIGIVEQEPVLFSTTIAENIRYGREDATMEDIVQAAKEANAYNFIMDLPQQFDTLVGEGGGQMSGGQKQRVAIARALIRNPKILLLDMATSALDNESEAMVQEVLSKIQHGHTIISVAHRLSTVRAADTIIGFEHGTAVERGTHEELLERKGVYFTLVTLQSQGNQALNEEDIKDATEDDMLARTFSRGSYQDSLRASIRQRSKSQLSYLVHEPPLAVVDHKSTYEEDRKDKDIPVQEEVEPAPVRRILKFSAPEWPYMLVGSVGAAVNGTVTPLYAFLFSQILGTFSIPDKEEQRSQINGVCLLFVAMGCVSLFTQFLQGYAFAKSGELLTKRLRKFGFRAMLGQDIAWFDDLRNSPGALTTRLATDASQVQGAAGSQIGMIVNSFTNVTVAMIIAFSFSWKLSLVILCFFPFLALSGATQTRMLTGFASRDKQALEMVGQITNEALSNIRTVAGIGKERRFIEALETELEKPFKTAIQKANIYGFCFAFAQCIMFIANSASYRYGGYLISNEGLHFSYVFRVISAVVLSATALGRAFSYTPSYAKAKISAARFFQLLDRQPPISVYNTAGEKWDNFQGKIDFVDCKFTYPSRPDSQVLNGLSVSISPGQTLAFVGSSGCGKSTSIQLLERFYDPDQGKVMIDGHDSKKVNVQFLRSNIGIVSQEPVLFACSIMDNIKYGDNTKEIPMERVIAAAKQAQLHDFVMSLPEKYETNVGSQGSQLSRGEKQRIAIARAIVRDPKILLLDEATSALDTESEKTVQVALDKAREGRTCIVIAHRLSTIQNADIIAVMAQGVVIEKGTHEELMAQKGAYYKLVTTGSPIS

For the compound `CCCC(=O)O` [butanoic acid], on wild-type BSEP [1], the “efflux of [^3H] TC from the base side to the apical side (in words)” value (“efflux of [^3H] TC from the base side” for short) was “increased”.

With `CCCCCCCCCC(=O)O` [decanoic acid], the “efflux of [^3H] TC from the base side” value on wild-type BSEP [1] is reported as “increased”.

Consider `CCCCCCCC(=O)O` [octanoic acid], for which the “expression level of wild-type BSEP” value on wild-type BSEP [2] is reported as “an increase in the expression level was observed”.

As to `CCC(=O)O` [propionic acid], the “efflux of [^3H] TC from the base side” value at wild-type BSEP [1] was “increased”.
